# Test results published in patent US20110060000A1, “ACRIDINE ANALOGS IN THE TREATMENT OF GLIOMAS” (priority 2009, published 2011).
# Columns and labels:
# GRP78 promoter = assay: GRP78-luc reporter assay in stably transfected U87-MG clone A5; format: cell-based, human; conditions: for GRP78 promoter driven luciferase (GRP78-luc) expression: result in words
# Experimental: The promoter region contains the sequence of the GRP78 promoter from −139 to +7. In this part of the promoter there are three ER stress responsive elements and the TATA box to which is linked in frame the firefly luciferase sequence.
# Compounds were plated in half area 96 well plates at the final concentration of 2 μM in 5 μl of media. Cells were added in 45 μl afterwards at the density of 5000/well. Plates were read after 16 h in an Envision high efficiency plate reader. Results are represented as a plate layout in which different shadings indicate the different rows and the number indicate the different lines. As a standard negative and positive controls were located in the outer columns.
# A construct coding a large part of the human GRP78 promoter, attached to the reporter gene firefly luciferase was used (see FIG. 16 for a schematic) (Yoshida et al., 1998).
# The promoter region contains the sequence of the GRP78 promoter from −139 to +7. In this part of the promoter there are three ER stress responsive elements and the TATA box to which is linked in frame the firefly luciferase sequence (FIG. 16)(Yoshida et al., 1998). The construct, which was cloned in an expression vector, was transfected into E. Coli, amplified, purified and checked it by enzymatic digestion. Thereafter, C6 and U87-MG were transiently transfected with the plasmid. After 24 hours the cells were challenged with THAP and TUN for 24 hours. Although, in transient transfection only a small part of the cell population expresses the transduced gene, a significant induction by THAP and TUN was detected over 24 hours. Armed with these encouraging data human glioma cells U87-MG were transfected with both the above described construct and a construct carrying resistance to blasticidin. The sensitivity of these cells to the antibiotic has previously been assessed. 24 hours after the transfection the antibiotic at its 75% inhibitory concentration was added. The cells were given time to proliferate. Two pools called P2 and P5 were selected and luciferase expression was assessed. […] Clones from these two pools were isolated. Luciferase expression in the clones was characterized and a clone called A5, in which baseline expression of the construct was reasonably low and induction with two positive controls was large and consistent, was selected. This clone, several back up clones, and the pools were amplified and frozen in sufficient amounts to guarantee continuity in case needed. Next, the effect of the incubation time on luciferase induction was assessed. Since this assay can be affected by false negative due to toxicity of hit compounds, the incubation times were kept as short as possible. Therefore, several incubation times were tested, including 8, 16 and 24 h. The goal was not to incubate longer than 24 hours because toxicity starts to develop at that time point. […] At this time point the induction is about 6-7 fold. Previously, using a different assay, a half a million compound library was screened very easily using 2.5 thousands cells per well in 1536 plates. […] With this cell number the dynamic range is large and the fold of induction of 6-7 is maintained.
# It is common practice in the field of high throughput screening to assess the so called z number of the assay. This statistical parameter indicates the suitability of a given assay for high throughput screening. The z-value in a word describes the likelihood of a single point hit not to be false positive. The z value is a number lower than or equal to one. Values above 0.5 indicate a robust assay. Values below 0.5 but above 0 indicate an assay that probably needs to be run in duplicate. Negative values indicate assays whose predictability is very low. Z values are usually determined in a high density format plate usually a 96 well plate in manual conditions or a 384-1536 plate format in automated liquid handling environment. Z value determination has been performed using half area 96 well plates in manual mode. […]
# glioma cells = assay: Gliotoxicity, cell line not stated; format: cell-based; conditions: cell line not stated
# Source text: Spiperone is a selective D2 dopamine receptor antagonist. This drug is used in the treatment of schizophrenia and other hallucinatory states. […] In an effort to develop Structure-Activity Relationships around the chosen compounds, a search of commercially available compounds that are either close structural analogs of these lead compounds (for example, acridine and quinoline analogs of quinacrine) or are related to these in terms of their pharmacological activity (dopamine receptor antagonists related to spiperone) was performed.
# tumor cells = conditions: in vitro and in vivo; cited from earlier work
# p53 = conditions: cited from earlier work
# [1] = tested on: subcutaneous U87-MG gliomas; assay: Mice bearing subcutaneous U87-MG gliomas; format: in vivo
# Source text: The estimated survival prolongment is 14 days in mice life which compares at 851 days in human life based on a life expectancy of 18 months in mice and 90 years in human. Also, since one animal was tumor-free at the end of the treatment that translates in an expected 16% cure rate.
# FIG. 29a graphs % tumor weight/control as a function of days after implantation. […] Such a profile indicates effectiveness in vivo for both treatment and for prevention of relapse. FIG. 29b graphs % animal survival as a function of days after implantation. […] Such a profile indicates effectiveness in vivo for both treatment and for prevention of relapse.
# Mice bearing subcutaneous gliomas were received daily oral administration of 200 mg/kg of quinacrine. […] In FIG. 29 is shown the effect of 100 mg/kg of quinacrine and 10 mg/kg 9-aminoacridine in Mice bearing subcutaneous U87-MG gliomas.
# [2] = tested on: U87-MG skin xenograft tumor explants; assay: U87-MG skin xenograft tumor explants, ERSR markers; format: in vivo, mice; conditions: samples after 7 and 21 days
# Source text: U7 represents vehicle treated sample after 7 days. U21 represents vehicle treated sample after 21 days. Q7 represents quinacridine-treated sample after 7 days. Q21 represents quinacridine-treated sample after 21 days. 9AA-7 represents 9-aminoacridine-treated sample after 7 days. 9AA-21 represents 9-aminoacridine-treated sample after 21 days.
# DNA = conditions: cited from earlier work
# NF-κB = conditions: tumor cells; cited from earlier work
# C6 [3] = assay: [Ca2+]i measurement in C6; format: cell-based, rat
# Source text: (Statistical analysis it is shown in the inset. Values at the peak of the response have been analyzed using ANOVA followed by T-test, ** indicate P<0.01.).
# Ca^2+ mobilization from ER was caused using an agonist acting via inositol trisphosphate elevation, mimicking physiological responses. In these conditions the dynamics of Ca^2+ transients were observe in these two cell lines. It appears evident that the plateau phase in C6 is consistently larger than in astrocytes.
# Panel A: Challenge of astrocytes with ATP show the unchanged typical spike and plateau response. Panel B: In C6 an oscillatory pattern is readily detectable in response to treatment with TUN.
# Tools and protocols have been developed to cleanly observe capacitative Ca^2+ entry (CCE), the phenomenon that allows the replenishment of intracellular Ca^2+ (ICS) stores and make quantitative and qualitative assessments. In particular, in astrocytes, capacitative Ca^2+ entry happens in absence of cytoplasmic Ca^2+ concentration ([Ca^2+]i) elevation (Grimaldi; 2006)(FIG. 1). […] The study was designed to investigate if there was a difference between astrocytes and glial cancer cells in this distinctive homeostatic pattern. The findings presented in this study, indicate that there are striking differences between glial cells and their cancer counterpart. The model utilizes rat cells but the observations extend and apply to human glioma cells as well. When the responses of normal astrocytes and C6 cells to thapsigargin (THAP), an agent able to block SERCA, therefore causing the release of Ca^2+ from the ER, were compared it was evident that C6 was more sensitive to the THAP (FIG. 2). However, the difference can be ascribed to one of many possibilities. […]
# This phase is dependent on the balance of Ca^2+ influx triggered by store depletion and the reuptake in the ER due to SERCA activity. […] To investigate the role of influx triggered by ICS depletion, CCE was analyzed following THAP-induced depletion of ICS. […]
# PLA2 = conditions: coinjection with PLA2; cited from earlier work
# phospholipase A2 (PLA2) = conditions: cited from earlier work
# C6 [4] = assay: TUNEL labeling in C6; format: cell-based, rat; conditions: C6, 24 hours
# Experimental: C6 were plated on glass coverslips. Cells were fixed and stained accordingly to manufacturer instructions. Propidium staining of the nuclei was replaced by Hoechst included in the mounting media. Several images were acquired with a high resolution camera on a microscope equipped with a 10× long working distance dry lens and analyzed with powerful commercial software. Results were expressed in the graph as green labeled pixel counts. The images from the top to the bottom are respectively from N.T., DMSO, Thap 20 nM, Thap 200 nM, STS100 nM. The blue images reflect nuclear staining while the images on the right represent BRDU staining.
# Thereafter, cells were harvested and protein extracted. Procaspase 12 band at 65 kDa was identified. In some of the treatments, the active product at 45 kDa was also detected. […] Conversely, in C6, higher GRP78 levels and the cell environment reflect significant caspase activation. […] Caspase activation in ERSR conditions was also confirmed with a TUNEL based apoptosis detection system in C6. […] High resolution images of the experiments were acquired and image morphometric analysis was performed to determine quantitative parameters of the staining as previously described (Pascale et al., 2004, “Translocation of protein kinase C-betaII in astrocytes requires organized actin cytoskeleton and is not accompanied by synchronous RACK1 relocation.” Glia 46(2): 169-82). […]
# [5] = full dose over about 45 days, Q oral, 9-AA I.P.
# [6] = half dose (maintenance dose) up to about 60 days
compound,measurement,setting,value
"Cl.Nc1c2ccccc2nc2ccccc12.O [9-aminoacridine, hydrate, hydrochloride]",GRP78 promoter driven luciferase (GRP78-luc) expression,"GRP78 promoter; hydrate, hydrochloride",causes increased expression of the GRP78-luc reporter gene
same,gliotoxicity,glioma cells,causes gliotoxicity
Nc1c2ccccc2nc2ccccc12 [9-aminoacridine],toxicity to tumor versus normal cells,tumor cells,more toxic to tumor than to normal cells
same,p53 activation and p53-dependent killing of tumor cell types,p53,capable of p53 activation and p53-dependent killing
same,cure rate,[1]; 10 mg/kg 9-aminoacridine,77%
same,antiglioma action,[1]; 100 mg/kg of quinacrine and 10 mg/kg 9-aminoacridine,powerful antiglioma action
same,tumor once survival rate stabilized,[1]; 9-AA I.P.,no sign of tumor
same,animal survival rate compared to control,[1]; [5],increased survival rate
same,tumor size compared to control,[1]; [5],decrease in tumor size
same,animal survival rate compared to control,[1]; [6],survival rate was high
same,tumor size compared to control,[1]; [6],tumor size remained relatively constant
same,ERSR activation and GRP78 target protein in tumor explants,[2],activaiton of ERSR and changes in GRP78 target protein
same,caspase 12 activation in tumor explants,[2],activation of caspase 12 is evident
same,DNA damaging activity,DNA,not found to show DNA damaging activity
same,stimulated and basal constitutive NF-κB activity,NF-κB,block stimulated NF-κB activity and also effectively reduce basal levels of constitutive NF-κB activity
Nc1ncnc2c1ncn2[C@@H]1O[C@H](COP(=O)(O)OP(=O)(O)OP(=O)(O)O)[C@@H](O)[C@H]1O [ATP],[Ca2+]i response of C6 to ATP compared with astrocytes,C6 [3],increased elevation of [Ca^2+]i
"CCN(CC)CCCC(C)Nc1c2cc(OC)ccc2nc2cc(Cl)c(N)cc12 (stereo not drawn) [OSSL-053454, 3-chloro-N^9-(5-(diethlyamino)pentan-2-yl)-7-methoxy acridine-2,9-diamine]",GRP78 promoter driven luciferase (GRP78-luc) expression,GRP78 promoter,causes an increase of the GRP78-luc reporter gene similar to the increase caused by quinacrine
same,GRP78 promoter driven luciferase (GRP78-luc) expression,GRP78 promoter; listed as OSSL 53454,causes an increase of the GRP78-luc reporter gene as quinacrine
same,gliotoxicity,glioma cells,causes gliotoxicity similar to that caused by quinacrine
same,gliotoxicity,glioma cells; listed as OSSL 53454,causes gliotoxicity
"CCN(CC)CCCC(C)Nc1c2ccc(Cl)cc2nc2ccc(OC)cc12.Cl.Cl (stereo not drawn) [quinacrine hydrochloride, 6-chloro-9-((4-(diethylamino)-1-methylbutyl)amino)-2-methoxyacridine dihydrochloride]",reduction of the inflammogenic potency of PLA2,PLA2,64%
same,PLA2 inhibition in platelets,phospholipase A2 (PLA2),phospholipase A2 (PLA2) inhibitor
O=C(CCCN1CCC2(CC1)C(=O)NCN2c1ccccc1)c1ccc(F)cc1 [spiperone],hit in Prestwick library screening (value above average of negative controls + 3 SD),"GRP78 promoter; 2 μM, 5000 cells/well, read after 16 h",potentially attractive lead compounds
CN[C@@H]1C[C@H]2O[C@@](C)([C@@H]1OC)n1c3ccccc3c3c4c(c5c6ccccc6n2c5c31)C(=O)NC4 [staurosporin],TUNEL labeling,C6 [4],clear increase of TUNEL labeling
